In ChEMBL document CHEMBL6182877, “Design, synthesis, and activity evaluation of novel STING inhibitors based on C170 and H151” (Eur J Med Chem, 2025):
Activity calls are given as the source filed them. The calls are words filed in the database; no cut-off is given here.

Legend:
Mus musculus [1] = test: Protection against cisplatin-induced C57BL/6J mouse assessed as effect on fibrotic tissue proliferation in spleen at 10 to 20 mg/kg, ip pretreated with compound for 1 hr followed by cisplatin induction and measured after 4 hrs by H and E staining based analysis; format: functional, organism-based; conditions: dose 10-20 mg/kg, time 5.0 hrs
Mus musculus [2] = test: Protection against cisplatin-induced C57BL/6J mouse assessed as reduction in tubular structure disintegration in kidney at 10 to 20 mg/kg, ip pretreated with compound for 1 hr followed by cisplatin induction and measured after 4 hrs by H and E staining based analysis; format: functional, organism-based; conditions: dose 10-20 mg/kg, time 5.0 hrs
Mus musculus [3] = test: Anti-inflammatory activity in cisplatin-induced acute kidney injury C57BL/6J mouse model assessed as reduction in ALT level in plasma at 10 to 20 mg/kg, ip; format: functional, organism-based; conditions: dose 10-20 mg/kg
Mus musculus [4] = test: Renoprotective activity in cisplatin-induced acute kidney injury C57BL/6J mouse model assessed as reduction in […] level at 10 to 20 mg/kg, ip; format: functional, organism-based; conditions: dose 10-20 mg/kg
Mus musculus [5] = test: Anti-inflammatory activity in cisplatin-induced acute kidney injury C57BL/6J mouse model assessed as reduction in kidney index at 10 to 20 mg/kg, ip; format: functional, organism-based; conditions: dose 10-20 mg/kg
[6] = biological target: T1, Stimulator of interferon genes protein (Mus musculus) (UniProt Q3TBT3); test: Binding affinity to STING in mouse RAW264.7 cells assessed as increase in thermal stability at 30 uM 47 to 62 degreeC incubated for 8 hrs by CETSA analysis; format: cell-based
T1 sequence (whole entry): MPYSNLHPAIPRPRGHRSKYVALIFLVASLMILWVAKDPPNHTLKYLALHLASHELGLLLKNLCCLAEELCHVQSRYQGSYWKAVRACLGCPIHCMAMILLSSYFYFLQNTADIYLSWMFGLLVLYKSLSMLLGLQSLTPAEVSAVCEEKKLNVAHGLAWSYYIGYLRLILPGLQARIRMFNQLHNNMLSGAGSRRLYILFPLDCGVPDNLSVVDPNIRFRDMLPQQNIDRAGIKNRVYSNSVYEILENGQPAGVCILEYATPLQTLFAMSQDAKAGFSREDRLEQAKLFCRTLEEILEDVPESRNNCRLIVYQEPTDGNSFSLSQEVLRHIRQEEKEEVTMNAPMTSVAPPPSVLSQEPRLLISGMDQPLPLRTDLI

Mus musculus [7] = test: Protection against cisplatin-induced C57BL/6J mouse assessed as effect on enlargement of splenic corpuscle in spleen at 10 to 20 mg/kg, ip pretreated with compound for 1 hr followed by cisplatin induction and measured after 4 hrs by H and E staining based analysis; format: functional, organism-based; conditions: dose 10-20 mg/kg, time 5.0 hrs
Mus musculus [8] = test: Protection against cisplatin-induced C57BL/6J mouse assessed as reduction in tubular obstruction in kidney at 10 to 20 mg/kg, ip pretreated with compound for 1 hr followed by cisplatin induction and measured after 4 hrs by H and E staining based analysis; format: functional, organism-based; conditions: dose 10-20 mg/kg, time 5.0 hrs
Mus musculus [9] = test: Protection against cisplatin-induced C57BL/6J mouse assessed as reduction in inflammatory cell exudation in kidney at 10 to 20 mg/kg, ip pretreated with compound for 1 hr followed by cisplatin induction and measured after 4 hrs by H and E staining based analysis; format: functional, organism-based; conditions: dose 10-20 mg/kg, time 5.0 hrs
Mus musculus [10] = test: Protection against cisplatin-induced C57BL/6J mouse assessed as reduction in vacuole-like changes in kidney at 10 to 20 mg/kg, ip pretreated with compound for 1 hr followed by cisplatin induction and measured after 4 hrs by H and E staining based analysis; format: functional, organism-based; conditions: dose 10-20 mg/kg, time 5.0 hrs
Mus musculus [11] = test: Anti-inflammatory activity in cisplatin-induced acute kidney injury C57BL/6J mouse model assessed as reduction in AST level in plasma at 10 to 20 mg/kg, ip; format: functional, organism-based; conditions: dose 10-20 mg/kg
Mus musculus [12] = test: Protection against cisplatin-induced C57BL/6J mouse assessed as effect on inflammatory cell infiltration in spleen at 10 to 20 mg/kg, ip pretreated with compound for 1 hr followed by cisplatin induction and measured after 4 hrs by H and E staining based analysis; format: functional, organism-based; conditions: dose 10-20 mg/kg, time 5.0 hrs
Mus musculus [13] = test: Protection against cisplatin-induced C57BL/6J mouse assessed as reduction in tubular epithelial edema in kidney at 10 to 20 mg/kg, ip pretreated with compound for 1 hr followed by cisplatin induction and measured after 4 hrs by H and E staining based analysis; format: functional, organism-based; conditions: dose 10-20 mg/kg, time 5.0 hrs
[14] = biological target: Stimulator of interferon genes protein (Homo sapiens) (UniProt Q86WV6); test: Inhibition of STING activation in human THP-1 cells assessed as reduction in SR717-induced IFNbeta mRNA expression at 0.03 to 0.3 uM pretreated with compound for 1 hr followed by SR717 induction and measured after 4 hrs by qPCR analysis; format: cell-based; conditions: dose 0.03-0.3 µM, time 5.0 hrs
[15] = biological target: Stimulator of interferon genes protein (Homo sapiens) (UniProt Q86WV6); test: Inhibition of STING activation in human THP-1 cells assessed as reduction in SR717-induced CXCL10 mRNA expression at 0.03 to 0.3 uM pretreated with compound for 1 hr followed by SR717 induction and measured after 4 hrs by qPCR analysis; format: cell-based; conditions: dose 0.03-0.3 µM, time 5.0 hrs
RAW264.7 [16] = test: Cytotoxicity against mouse RAW264.7 cells assessed as cell viability by MTT assay
[17] = Cytotoxicity against HEK293T cells assessed as cell viability by MTT assay; format: toxicity, cell-based, HEK-293T; conditions: human
[18] = Cytotoxicity against HUVEC cells assessed as cell viability by MTT assay; format: toxicity, cell-based; conditions: human
THP-1 = test: Cytotoxicity against human THP-1 cells assessed as cell viability by MTT assay
Mus musculus [19] = test: Anti-inflammatory activity against MSA-2 induced C57BL/6 mouse model assessed as reduction in splenic index at 30 mg/kg, ip pretreated with compound for 1 hr followed by MSA-2 induction and measured after 4 hrs; format: functional, organism-based; conditions: time 5.0 hrs
Mus musculus [20] = test: Anti-inflammatory activity against MSA-2 induced C57BL/6 mouse model assessed as reduction in IL-6 level in plasma at 30 mg/kg, ip pretreated with compound for 1 hr followed by MSA-2 induction and measured after 4 hr; format: functional, organism-based; conditions: time 5.0 hrs
[21] = Toxicity in male C57BL/6J mouse assessed as kidney damage at 10 mg/kg, ip by H and E staining based analysis; format: organism-based; conditions: in vivo
[22] = Toxicity in male C57BL/6J mouse assessed as body weight loss at 10 mg/kg, ip; format: organism-based; conditions: in vivo
Mus musculus [23] = test: Anti-inflammatory activity against MSA-2 induced C57BL/6 mouse model assessed as downregulation of TBK1 expression in spleen at 30 mg/kg, ip pretreated with compound for 1 hr followed by MSA-2 induction and measured after 4 hrs; format: functional, organism-based; conditions: time 5.0 hrs
Mus musculus [24] = test: Renoprotective activity in cisplatin-induced acute kidney injury C57BL/6J mouse model assessed as reduction in […] level at 10 mg/kg, ip; format: functional, organism-based
Mus musculus [25] = test: Renoprotective activity in cisplatin-induced acute kidney injury C57BL/6J mouse model assessed as reduction in BUN level at 10 mg/kg, ip; format: functional, organism-based
Mus musculus [26] = test: Anti-inflammatory activity against MSA-2 induced C57BL/6 mouse model assessed as reduction in IFN-beta level in plasma at 30 mg/kg, ip pretreated with compound for 1 hr followed by MSA-2 induction and measured after 4 hr; format: functional, organism-based; conditions: time 5.0 hrs
[27] = biological target: T1, Stimulator of interferon genes protein (Mus musculus); test: Binding affinity to STING in mouse RAW264.7 cells assessed as increase in thermal stability at 30 uM 40 to 61 degreeC incubated for 8 hrs by CETSA analysis; format: cell-based
RAW264.7 [28] = test: Antiinflammatory activity in mouse RAW264.7 cells assessed as inhibition of LPS-induced NO release at 0.2 to 5 uM pretreated with compound for 1 hr; format: functional, cell-based; conditions: dose 0.2-5 µM
[29] = biological target: T2, Interferon regulatory factor 3 (Homo sapiens) (UniProt Q14653); test: Inhibition of IRF3 phosphorylation in SR717-induced human THP-1 cells at 0.2 to 5 uM pretreated with compound for 1 hr followed by SR717 induction and measured after 4 hrs by Western blot analysis; format: cell-based; conditions: dose 0.2-5 µM, time 5.0 hrs
T2 sequence (whole entry): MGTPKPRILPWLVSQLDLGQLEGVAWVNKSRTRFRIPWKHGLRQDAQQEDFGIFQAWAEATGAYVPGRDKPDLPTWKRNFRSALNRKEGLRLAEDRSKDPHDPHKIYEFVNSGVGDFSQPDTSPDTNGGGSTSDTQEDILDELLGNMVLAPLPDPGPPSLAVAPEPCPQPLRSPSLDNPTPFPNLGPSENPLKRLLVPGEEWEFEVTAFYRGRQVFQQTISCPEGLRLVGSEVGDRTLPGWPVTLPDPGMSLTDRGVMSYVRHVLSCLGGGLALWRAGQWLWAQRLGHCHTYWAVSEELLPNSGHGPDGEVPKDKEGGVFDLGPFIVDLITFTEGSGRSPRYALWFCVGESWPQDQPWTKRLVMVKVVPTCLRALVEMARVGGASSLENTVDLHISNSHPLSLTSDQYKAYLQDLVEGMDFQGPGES

[30] = biological target: T3, Serine/threonine-protein kinase TBK1 (Homo sapiens) (UniProt Q9UHD2); test: Inhibition of TBK1 phosphorylation in SR717-induced human THP-1 cells at 0.2 to 5 uM pretreated with compound for 1 hr followed by SR717 induction and measured after 4 hrs by Western blot analysis; format: cell-based; conditions: dose 0.2-5 µM, time 5.0 hrs
T3 sequence (whole entry): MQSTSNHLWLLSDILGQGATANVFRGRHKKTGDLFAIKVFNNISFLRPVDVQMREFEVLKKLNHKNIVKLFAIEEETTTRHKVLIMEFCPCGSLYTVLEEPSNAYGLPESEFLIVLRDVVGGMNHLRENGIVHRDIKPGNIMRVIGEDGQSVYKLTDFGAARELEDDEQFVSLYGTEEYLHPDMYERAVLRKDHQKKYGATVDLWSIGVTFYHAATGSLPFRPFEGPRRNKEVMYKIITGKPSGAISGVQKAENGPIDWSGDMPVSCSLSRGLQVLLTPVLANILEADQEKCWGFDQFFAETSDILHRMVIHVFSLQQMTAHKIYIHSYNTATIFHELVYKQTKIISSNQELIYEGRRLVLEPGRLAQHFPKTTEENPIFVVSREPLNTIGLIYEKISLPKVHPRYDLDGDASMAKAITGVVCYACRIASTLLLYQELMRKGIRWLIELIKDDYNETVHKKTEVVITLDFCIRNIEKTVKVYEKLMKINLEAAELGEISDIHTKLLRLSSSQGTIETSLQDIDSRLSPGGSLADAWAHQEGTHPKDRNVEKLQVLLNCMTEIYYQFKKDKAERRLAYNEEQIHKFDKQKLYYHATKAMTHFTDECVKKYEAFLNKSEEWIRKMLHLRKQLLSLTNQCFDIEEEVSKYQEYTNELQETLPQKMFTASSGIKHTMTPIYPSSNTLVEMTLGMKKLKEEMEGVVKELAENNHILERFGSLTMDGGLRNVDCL

Stimulator of interferon genes protein (Homo sapiens), sequence (Q86WV6 whole entry): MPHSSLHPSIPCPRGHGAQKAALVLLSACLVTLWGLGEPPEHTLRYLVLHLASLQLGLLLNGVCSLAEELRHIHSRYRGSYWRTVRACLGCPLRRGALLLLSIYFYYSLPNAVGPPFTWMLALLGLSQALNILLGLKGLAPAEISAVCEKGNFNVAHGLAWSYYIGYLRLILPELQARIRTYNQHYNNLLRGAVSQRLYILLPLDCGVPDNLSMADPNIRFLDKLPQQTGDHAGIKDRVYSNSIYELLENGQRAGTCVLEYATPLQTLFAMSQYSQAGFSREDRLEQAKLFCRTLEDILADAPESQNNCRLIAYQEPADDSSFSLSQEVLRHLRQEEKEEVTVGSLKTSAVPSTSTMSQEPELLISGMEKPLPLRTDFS

Compound	IC50 (RAW264.7 [16])	IC50 [17]	IC50 [18]	IC50 (THP-1)	Activity (Mus musculus [19])	Activity (Mus musculus [20])	Activity [21]	Activity [22]	Activity (Mus musculus [23])	Activity (Mus musculus [24])	Activity (Mus musculus [25])	Activity (Mus musculus [26])	also measured
O=C(Nc1ccc(OCCCC(F)(F)F)cc1)Nc1c[nH]c2ccccc12	–	–	–	–	–	–	–	–	–	–	–	–	Activity (Mus musculus [1]): Active; Activity (Mus musculus [2]): Active; Activity (Mus musculus [3]): Active; Activity (Mus musculus [4]): Active; Activity (Mus musculus [5]): Active; Activity [6]: Active; Activity (Mus musculus [7]): Active; Activity (Mus musculus [8]): Active; Activity (Mus musculus [9]): Active; Activity (Mus musculus [10]): Active; Activity (Mus musculus [11]): Active; Activity (Mus musculus [12]): Active; Activity (Mus musculus [13]): Active; inhibition [14]: Active; inhibition [15]: Active
O=C(/C=C/C=C/c1ccccc1)OCc1ccc(NC(=O)c2ccc([N+](=O)[O-])o2)cc1	0.53 µM	7.43 µM	–	–	–	–	–	–	–	–	–	–	–
O=C(/C=C/C=C/c1ccccc1)OCCc1ccc(NC(=O)c2ccc([N+](=O)[O-])o2)cc1	2.62 µM	6.34 µM	7.89 µM	4.6 µM	–	–	–	–	–	–	–	–	–
C/C=C/C=C/C(=O)OCc1ccc(NC(=O)c2ccc([N+](=O)[O-])o2)cc1	0.49 µM	8.57 µM	–	–	–	–	–	–	–	–	–	–	–
CCCCc1ccc(NC(=O)c2ccc([N+](=O)[O-])o2)cc1	0.89 µM	2.81 µM	4.77 µM	8.07 µM	Active	Active	Non-toxic	Non-toxic	Active	Active	Active	Active	–
O=C(Nc1ccc(OCCCC(F)(F)F)cc1)c1ccc([N+](=O)[O-])o1	5.21 µM	11.3 µM	10.4 µM	16.8 µM	Active	Active	Non-toxic	Non-toxic	Active	Active	Active	Active	Activity [27]: Active; Activity (RAW264.7 [28]): inactive; inhibition [29]: Active; inhibition [30]: Active
